Results as given in patent US9593305B2, “Differentiation of pluripotent stem cells” (Janssen Biotech, Inc., priority 2008, dated 2017).

System: H1 human embryonic stem cells
Experiment: Step-wise differentiation, high content analysis of cell number, insulin, glucagon after step 5 (Example 17)
Format: cell-based
Conditions: GDF-8 in step 1, alone or with a compound
Experimental: Step 5 of the differentiation protocol was carried out over seven days in DMEM-high glucose with 0.1% Albumax, 0.5× Insulin-Transferrin-Selenium, and 1 μM Alk 5 inhibitor. Medium in each well was aspirated and replaced with a fresh aliquot (0.5 ml) on all days. At the conclusion of the fifth step of differentiation, cells from some wells were harvested for analysis by RT-PCR to measure markers of differentiation. Other culture wells were subjected to high content image analysis for protein expression levels of insulin and glucagon.
At the conclusion of culture, assay plates were washed once with PBS (Invitrogen; Cat #14190), fixed with 4% paraformaldehyde (Alexis Biochemical; Cat #ALX-350-011) at room temperature for 20 minutes, then washed three times with PBS and permeabilized with 0.5% Triton X-100 (Sigma; Cat #T8760-2) for 20 minutes at room temperature. […]
Imaging was performed using an IN Cell Analyzer 1000 (GE Healthcare) utilizing the 51008bs dichroic for cells stained with Hoechst 33342 and Alexa Fluor 488. […] Segmentation for the nuclei was determined based on gray-scale levels (baseline range 100-300) and nuclear size. Averages and standard deviations were calculated for each replicate data set. Total protein expression was reported as total intensity or integrated intensity, defined as total fluorescence of the cell multiplied by the area of the cell. […]

With “GDF-8: growth factor GDF-8, also known as myostatin, member of the TGF-β family” the “insulin and glucagon expression at the conclusion of step five” value was “resulted in insulin and glucagon expression”.
